For this experiment, the target named is T1, USP25 (USP25-His6, Boston Biochem E-546) (Homo sapiens, UniProt Q9UHP3).
T1 construct: His6; purchased Boston Biochem E-546
T1 sequence (Q9UHP3 1-1055): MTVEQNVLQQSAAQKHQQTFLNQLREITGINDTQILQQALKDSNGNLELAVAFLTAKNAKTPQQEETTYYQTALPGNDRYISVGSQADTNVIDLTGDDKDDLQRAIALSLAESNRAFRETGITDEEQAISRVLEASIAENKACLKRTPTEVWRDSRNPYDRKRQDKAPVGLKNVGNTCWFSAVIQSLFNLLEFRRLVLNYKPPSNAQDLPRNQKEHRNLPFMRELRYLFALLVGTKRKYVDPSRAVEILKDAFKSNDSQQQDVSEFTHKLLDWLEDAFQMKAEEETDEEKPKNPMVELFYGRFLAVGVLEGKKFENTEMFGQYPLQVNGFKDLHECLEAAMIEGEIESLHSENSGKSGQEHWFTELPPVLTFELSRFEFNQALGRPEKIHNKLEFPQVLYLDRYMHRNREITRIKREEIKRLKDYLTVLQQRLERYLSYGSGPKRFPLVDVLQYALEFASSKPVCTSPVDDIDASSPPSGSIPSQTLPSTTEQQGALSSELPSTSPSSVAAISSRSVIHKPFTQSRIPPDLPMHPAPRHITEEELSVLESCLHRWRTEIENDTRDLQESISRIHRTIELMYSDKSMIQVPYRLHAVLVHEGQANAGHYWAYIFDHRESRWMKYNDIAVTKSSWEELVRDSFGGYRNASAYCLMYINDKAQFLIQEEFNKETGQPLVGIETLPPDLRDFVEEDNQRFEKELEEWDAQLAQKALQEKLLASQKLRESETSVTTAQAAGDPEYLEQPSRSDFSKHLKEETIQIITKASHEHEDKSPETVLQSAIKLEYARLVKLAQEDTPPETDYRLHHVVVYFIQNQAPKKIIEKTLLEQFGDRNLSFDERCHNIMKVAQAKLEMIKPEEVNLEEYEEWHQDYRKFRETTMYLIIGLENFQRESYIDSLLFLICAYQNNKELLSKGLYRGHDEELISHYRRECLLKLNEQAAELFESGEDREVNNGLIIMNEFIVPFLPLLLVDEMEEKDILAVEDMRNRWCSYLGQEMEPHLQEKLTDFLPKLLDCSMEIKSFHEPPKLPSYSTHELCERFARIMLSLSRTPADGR
As to the kind of experiment: Ubiquitin-Rhodamine 110 Assay for USP25 Activity, Example A-2. The experiment is classed as biochemical. To be noted: Ubiquitin-Rhodamine 110 assay, Example A-2; read-out: USP25 A-2 IC50 range. Put shortly:
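Steps: compound dilutions (top 25 μM, 3-fold, 10 points) were preincubated 30 min with 75 pM USP25-His6; 25 nM Ub-Rh110 substrate was added under initial-velocity conditions; after 45 min at room temperature, 10 mM citric acid stopped the reaction before fluorescence reading.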

SMILES strings stand for the structures. pIC50: −log10 of the molar value.

As a reminder, the pIC50 is the IC50 on a negative log10 scale, so that one unit is a factor of ten. On to `Cc1cc(C)c2c(N)c(C(=O)N[C@H]3COc4cc(N5CC[C@H]6CNC[C@H]65)ccc4C3)sc2n1` [Example 226, N-[(3R)-7-[(3aS,6aS)-octahydropyrrolo[2,3-c]pyrrol-1-yl]-3,4-dihydro-2H-1-benzopyran-3-yl]-3-amino-4,6-dimethylthieno[2,3-b]pyridine-2-carboxamide], for which the pIC50 is 6.70 to 7.30.

For the compound `Cc1cc(C)c2c(N)c(C(=O)N[C@H]3COc4cc(N5CC[C@@H]6CNC[C@@H]65)ccc4C3)sc2n1` [Example 227, N-[(3R)-7-[(3aR,6aR)-octahydropyrrolo[2,3-c]pyrrol-1-yl]-3,4-dihydro-2H-1-benzopyran-3-yl]-3-amino-4,6-dimethylthieno[2,3-b]pyridine-2-carboxamide], the negative-log IC50 (pIC50) was 6.70 to 7.30.

As for `N#Cc1c(N2CC3CCC(C2)N3)cc(F)c2c1OC[C@H](NC(=O)c1cnc3c(c1)[C@@H]1C[C@@H]1CN3)C2` [Example 228, (6aS,7aR)-N-[(3R)-8-cyano-7-{3,8-diazabicyclo[3.2.1]octan-3-yl}-5-fluoro-3,4-dihydro-2H-1-benzopyran-3-yl]-5H,6H,6aH,7H,7aH-cyclopropa[c]1,8-naphthyridine-2-carboxamide], the pIC50 was 5.70 to 6.70.

`N#Cc1c(N2CC3CCC(C2)N3)cc(F)c2c1OC[C@H](NC(=O)c1cnc3c(c1)[C@H]1C[C@H]1CN3)C2` [Example 229, (6aR,7aS)-N-[(3R)-8-cyano-7-{3,8-diazabicyclo[3.2.1]octan-3-yl}-5-fluoro-3,4-dihydro-2H-1-benzopyran-3-yl]-5H,6H,6aH,7H,7aH-cyclopropa[c]1,8-naphthyridine-2-carboxamide]: the pIC50 was less than 5.70.

As to `Cc1cc(C)c2c(N)c(C(=O)N[C@H]3COc4c(C#N)c(N5CC6CCC(C5)N6)cc(F)c4C3)sc2n1` [Example 230, 3-amino-N-[(3R)-8-cyano-7-{3,8-diazabicyclo[3.2.1]octan-3-yl}-5-fluoro-3,4-dihydro-2H-1-benzopyran-3-yl]-4,6-dimethylthieno[2,3-b]pyridine-2-carboxamide], the pIC50 is 5.70 to 6.70.

With `Cc1ccc2c(N)c(C(=O)N[C@H]3COc4cc(N5CC[C@H]6CC[C@@H](N)C[C@H]65)ccc4C3)sc2n1` [Example 231, N-[(3R)-7-[(3aR,6R,7aR)-6-amino-octahydro-1H-indol-1-yl]-3,4-dihydro-2H-1-benzopyran-3-yl]-3-amino-6-methylthieno[2,3-b]pyridine-2-carboxamide], the negative logarithm of the IC50 (pIC50) was 7.30 to 9.00.

`Cc1ccc2c(N)c(C(=O)N[C@H]3COc4cc(N5CC[C@H]6CC[C@H](N)C[C@H]65)ccc4C3)sc2n1` [Example 232, N-[(3R)-7-[(3aR,6S,7aR)-6-amino-octahydro-1H-indol-1-yl]-3,4-dihydro-2H-1-benzopyran-3-yl]-3-amino-6-methylthieno[2,3-b]pyridine-2-carboxamide]: the pIC50 was 6.70 to 7.30.

On to `Cc1ccc2c(N)c(C(=O)N[C@H]3COc4cc(N5CC[C@@H]6CC[C@@H](N)C[C@@H]65)ccc4C3)sc2n1` [Example 233, N-[(3R)-7-[(3aS,6R,7aS)-6-amino-octahydro-1H-indol-1-yl]-3,4-dihydro-2H-1-benzopyran-3-yl]-3-amino-6-methylthieno[2,3-b]pyridine-2-carboxamide], for which the pIC50 was 7.30 to 9.00.

Turning to `Cc1ccc2c(N)c(C(=O)N[C@H]3COc4cc(N5CC[C@@H]6CC[C@H](N)C[C@@H]65)ccc4C3)sc2n1` [Example 234, N-[(3R)-7-[(3aS,6S,7aS)-6-amino-octahydro-1H-indol-1-yl]-3,4-dihydro-2H-1-benzopyran-3-yl]-3-amino-6-methylthieno[2,3-b]pyridine-2-carboxamide], the pIC50 is 6.70 to 7.30.

In the case of `Cc1ccc2c(N)c(C(=O)N[C@H]3COc4cc(N5CC[C@H]6CNCC[C@H]65)ccc4C3)sc2n1` [Example 235, N-[(3R)-7-[(3aS,7aR)-octahydro-1H-pyrrolo[3,2-c]pyridin-1-yl]-3,4-dihydro-2H-1-benzopyran-3-yl]-3-amino-6-methylthieno[2,3-b]pyridine-2-carboxamide], the pIC50 was 6.70 to 7.30.

Take `Cc1ccc2c(N)c(C(=O)N[C@H]3COc4cc(N5CC[C@@H]6CNCC[C@@H]65)ccc4C3)sc2n1` [Example 236, N-[(3R)-7-[(3aR,7aS)-octahydro-1H-pyrrolo[3,2-c]pyridin-1-yl]-3,4-dihydro-2H-1-benzopyran-3-yl]-3-amino-6-methylthieno[2,3-b]pyridine-2-carboxamide]: the pIC50 is 6.70 to 7.30.

On to `Cc1ccc2c(N)c(C(=O)N[C@H]3COc4cc(N5C[C@@H]6NCCC(F)(F)[C@@H]6C5)ccc4C3)sc2n1` [Example 237, N-[(3R)-7-[(4aR,7aR)-4,4-difluoro-octahydro-1H-pyrrolo[3,4-b]pyridin-6-yl]-3,4-dihydro-2H-1-benzopyran-3-yl]-3-amino-6-methylthieno[2,3-b]pyridine-2-carboxamide], for which the negative logarithm of the IC50 (pIC50) was 5.70 to 6.70.

`Cc1ccc2c(N)c(C(=O)N[C@H]3COc4cc(N5C[C@H]6NCCC(F)(F)[C@H]6C5)ccc4C3)sc2n1` [Example 238, N-[(3R)-7-[(4aS,7aS)-4,4-difluoro-octahydro-1H-pyrrolo[3,4-b]pyridin-6-yl]-3,4-dihydro-2H-1-benzopyran-3-yl]-3-amino-6-methylthieno[2,3-b]pyridine-2-carboxamide]: the negative-log IC50 (pIC50) is 5.70 to 6.70.

For the compound `CO[C@H]1CN(c2ccc3c(n2)CC[C@H](NC(=O)c2sc4nc(C)ccc4c2N)C3)C[C@]1(C)N` [Example 239, 3-amino-N-[(6S)-2-[(3S,4S)-3-amino-4-methoxy-3-methylpyrrolidin-1-yl]-5,6,7,8-tetrahydroquinolin-6-yl]-6-methylthieno[2,3-b]pyridine-2-carboxamide], the negative-log IC50 (pIC50) is less than 5.70.

With `CO[C@@H]1CN(c2ccc3c(n2)CC[C@H](NC(=O)c2sc4nc(C)ccc4c2N)C3)C[C@@]1(C)N` [Example 240, 3-amino-N-[(6S)-2-[(3R,4R)-3-amino-4-methoxy-3-methylpyrrolidin-1-yl]-5,6,7,8-tetrahydroquinolin-6-yl]-6-methylthieno[2,3-b]pyridine-2-carboxamide], the pIC50 was less than 5.70.

As to `Cc1cc(C)c2c(N)c(C(=O)N[C@H]3COc4cc(N5CC6CCC(C5)N6)c(C#N)c(F)c4C3)sc2n1` [Example 241, 3-amino-N-[(3R)-6-cyano-7-{3,8-diazabicyclo[3.2.1]octan-3-yl}-5-fluoro-3,4-dihydro-2H-1-benzopyran-3-yl]-4,6-dimethylthieno[2,3-b]pyridine-2-carboxamide], the pIC50 is 7.30 to 9.00.

On to `Cc1ccc2c(N)c(C(=O)N[C@H]3COc4cc(N5CCC[C@@H]6CNC[C@@H]65)ccc4C3)sc2n1` [Example 242, N-[(3R)-7-[(4aR,7aR)-octahydro-1H-pyrrolo[3,4-b]pyridin-1-yl]-3 ,4-dihydro-2H-1-benzopyran-3-yl]-3-amino-6-methylthieno[2,3-b]pyridine-2-carboxamide], for which the pIC50 was 6.70 to 7.30.

Consider `Cc1ccc2c(N)c(C(=O)N[C@H]3COc4cc(N5CCC[C@H]6CNC[C@H]65)ccc4C3)sc2n1` [Example 243, N-[(3R)-7-[(4aS,7aS)-octahydro-1H-pyrrolo[3,4-b]pyridin-1-yl]-3,4-dihydro-2H-1-benzopyran-3-yl]-3-amino-6-methylthieno[2,3-b]pyridine-2-carboxamide], for which the pIC50 is 7.30 to 9.00.

Turning to `Cc1ccc2c(N)c(C(=O)N[C@H]3COc4cc(N5C[C@H](N)CC[C@@H]5C(F)(F)F)ccc4C3)sc2n1` [Example 244, 3-amino-N-[(3R)-7-[(2R,5R)-5-amino-2-(trifluoromethyl)piperidin-1-yl]-3,4-dihydro-2H-1-benzopyran-3-yl]-6-methylthieno[2,3-b]pyridine-2-carboxamide], the negative-log IC50 (pIC50) was 7.30 to 9.00.

In the case of `Cc1ccc2c(N)c(C(=O)N[C@H]3COc4cc(N5C[C@@H](N)CC[C@H]5C(F)(F)F)ccc4C3)sc2n1` [Example 245, 3-amino-N-[(3R)-7-[(2S,5S)-5-amino-2-(trifluoromethyl)piperidin-1-yl]-3,4-dihydro-2H-1-benzopyran-3-yl]-6-methylthieno[2,3-b]pyridine-2-carboxamide], the pIC50 is 6.70 to 7.30.

As for `Cc1ccc2c(N)c(C(=O)N[C@H]3COc4cc(N5C[C@@H](N)CC[C@@H]5C(F)(F)F)ccc4C3)sc2n1` [Example 246, 3-amino-N-[(3R)-7-[(2R,5S)-5-amino-2-(trifluoromethyl)piperidin-1-yl]-3,4-dihydro-2H-1-benzopyran-3-yl]-6-methylthieno[2,3-b]pyridine-2-carboxamide], the pIC50 is 7.30 to 9.00.

Source of the values: patent publication US11524966B1 (Valo Early Discovery, Inc., priority 2017, dated 2022).
